Molecular target: T1, mTOR (Homo sapiens, UniProt P42345)
T1 construct: purchased Invitrogen PR8683A
Experiment: mTOR HTR-FRET assay
Type: biochemical
Settings: read-out: Act. Level (IC50 in mTor HTR-FRET assay)
In short: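 Test compounds, taken from 10 mM DMSO stocks and diluted, were mixed with mTOR enzyme (0.200 μg/mL) in Tris buffer pH 7.4 with 100 mM NaCl, 0.1% Tween-20 and 1 mM DTT. ATP/substrate addition initiated the reaction, alongside compound-free controls.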

T1 sequence (P42345 1360-2549 limits assumed): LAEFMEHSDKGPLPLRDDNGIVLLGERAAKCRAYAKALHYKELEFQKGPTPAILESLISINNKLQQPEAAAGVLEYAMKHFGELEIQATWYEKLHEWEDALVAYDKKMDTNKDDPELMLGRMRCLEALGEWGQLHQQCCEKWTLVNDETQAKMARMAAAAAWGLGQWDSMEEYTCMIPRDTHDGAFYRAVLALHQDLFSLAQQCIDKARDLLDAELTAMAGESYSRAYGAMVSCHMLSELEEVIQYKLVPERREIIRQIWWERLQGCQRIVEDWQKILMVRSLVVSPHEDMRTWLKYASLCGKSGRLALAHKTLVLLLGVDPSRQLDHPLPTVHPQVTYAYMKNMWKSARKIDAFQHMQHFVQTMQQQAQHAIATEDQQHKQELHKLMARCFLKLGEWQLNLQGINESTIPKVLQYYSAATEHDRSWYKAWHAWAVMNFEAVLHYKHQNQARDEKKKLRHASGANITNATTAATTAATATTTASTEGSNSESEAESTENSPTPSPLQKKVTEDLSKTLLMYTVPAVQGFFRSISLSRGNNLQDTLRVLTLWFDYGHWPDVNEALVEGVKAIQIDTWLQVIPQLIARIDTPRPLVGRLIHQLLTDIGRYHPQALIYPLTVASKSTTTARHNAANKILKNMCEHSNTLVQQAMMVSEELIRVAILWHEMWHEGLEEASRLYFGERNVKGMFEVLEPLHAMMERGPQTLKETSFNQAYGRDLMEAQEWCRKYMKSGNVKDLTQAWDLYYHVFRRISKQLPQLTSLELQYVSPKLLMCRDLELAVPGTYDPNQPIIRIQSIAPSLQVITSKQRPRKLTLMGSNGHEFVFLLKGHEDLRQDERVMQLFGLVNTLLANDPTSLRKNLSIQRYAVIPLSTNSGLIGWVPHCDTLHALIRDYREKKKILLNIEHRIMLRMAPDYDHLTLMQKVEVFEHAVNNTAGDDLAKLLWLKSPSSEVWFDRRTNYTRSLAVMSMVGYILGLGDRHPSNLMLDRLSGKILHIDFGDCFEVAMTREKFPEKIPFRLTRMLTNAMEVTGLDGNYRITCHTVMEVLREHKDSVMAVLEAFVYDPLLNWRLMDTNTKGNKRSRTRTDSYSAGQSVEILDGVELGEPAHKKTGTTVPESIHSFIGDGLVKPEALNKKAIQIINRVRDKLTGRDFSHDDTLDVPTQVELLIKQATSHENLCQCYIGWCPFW

SMILES	IC50 [nM]
CO[C@H]1C[C@H]2C(=O)Nc3ncc(-c4ccc(-c5nnc[nH]5)cc4C)nc3N2C1 [Example 113, 8-(4-(4H-1,2,4-triazol-3-yl)-2-methylphenyl)(2S,3aS)-2-methoxy-5,10,3a-trihydropyrazino[2,3-b]pyrrolidino[1,2-e]pyrazin-4-one]	250 to 500
COCCCN1CC(=O)Nc2ncc(-c3ccc(C(C)(C)O)nc3)nc21 [Example 114, 6-(6-(2-hydroxypropan-2-yl)pyridin-3-yl)-4-(3-methoxypropyl)-3,4-dihydropyrazino[2,3-b]pyrazin-2(1H)-one]	1000 to 10000
CC(C)(O)c1ccc(-c2cnc3c(n2)N(C[C@@H]2CCCO2)CC(=O)N3)cn1 [Example 115, (S)-6-(6-(2-hydroxypropan-2-yl)pyridin-3-yl)-4-((tetrahydrofuran-2-yl)methyl)-3,4-dihydropyrazino[2,3-b]pyrazin-2(1H)-one]	1000 to 10000
CC(C)(O)c1ccc(-c2cnc3c(n2)N(C[C@H]2CCCO2)CC(=O)N3)cn1 [Example 116, (R)-6-(6-(2-hydroxypropan-2-yl)pyridin-3-yl)-4-((tetrahydrofuran-2-yl)methyl)-3,4-dihydropyrazino[2,3-b]pyrazin-2(1H)-one]	500 to 1000
Cc1cc(-c2nnc[nH]2)ccc1-c1cnc2c(n1)N1CCN(C)CC1C(=O)N2 (stereo not drawn) [Example 118, 9-(4-(4H-1,2,4-triazol-3-yl)-2-methylphenyl)-3-methyl-6,11,4a-trihydropiperazino[1,2-e]pyrazino[2,3-b]pyrazin-5-one]	500 to 1000
O=C1Nc2ncc(-c3ccc(-c4nnc[nH]4)cc3)nc2N2CCOCC12 (stereo not drawn) [Example 119, 9-(4-(4H-1,2,4-triazol-3-yl)phenyl)-6,11,4a-trihydromorpholino[4,3-e]pyrazino[2,3-b]pyrazin-5-one]	0.005 to 250
Cc1cc(-c2nnc[nH]2)ccc1-c1cnc2c(n1)N1CCCCC1C(=O)N2 (stereo not drawn) [Example 120, 9-(4-(4H-1,2,4-triazol-3-yl)-2-methylphenyl)-6,11,4a-trihydropiperidino[1,2-e]pyrazino[2,3-b]pyrazin-5-one]	0.005 to 250
CC(C)(O)c1ccc(-c2cnc3c(n2)N(CCN2CCOCC2)CC(=O)N3)cn1 [Example 123, 6-(6-(2-hydroxypropan-2-yl)pyridin-3-yl)-4-(2-morpholinoethyl)-3,4-dihydropyrazino[2,3-b]pyrazin-2(1H)-one]	1000 to 10000
CC(C)(O)c1ccc(-c2cnc3c(n2)N(CCc2ccccc2)CC(=O)N3)cn1 [Example 124, 6-(6-(2-hydroxypropan-2-yl)pyridin-3-yl)-4-phenethyl-3,4-dihydropyrazino[2,3-b]pyrazin-2(1H)-one]	250 to 500
CC(C)(O)c1ccc(-c2cnc3c(n2)N([C@@H]2CCOC2)CC(=O)N3)cn1 [Example 129, (R)-6-(6-(2-hydroxypropan-2-yl)pyridin-3-yl)-4-(tetrahydrofuran-3-yl)-3,4-dihydropyrazino[2,3-b]pyrazin-2(1H)-one]	500 to 1000
CC(C)(O)c1ccc(-c2cnc3c(n2)N([C@H]2CCOC2)CC(=O)N3)cn1 [Example 130, (S)-6-(6-(2-hydroxypropan-2-yl)pyridin-3-yl)-4-(tetrahydrofuran-3-yl)-3,4-dihydropyrazino[2,3-b]pyrazin-2(1H)-one]	500 to 1000
C[C@H]1C(=O)Nc2ncc(-c3ccc(C(C)(C)O)nc3)nc2N1CCC1CCOCC1 [Example 132, (S)-6-(6-(2-hydroxypropan-2-yl)pyridin-3-yl)-3-methyl-4-(2-(tetrahydro-2H-pyran-4-yl)ethyl)-3,4-dihydropyrazino[2,3-b]pyrazin-2(1H)-one]	0.005 to 250
CC(C)(O)c1ccc(-c2cnc3c(n2)N2CCOCC2C(=O)N3)cn1 (stereo not drawn) [Example 133, 9-[6-(1-hydroxy-isopropyl)-3-pyridyl]-6,11,4a-trihydromorpholino[4,3-e]pyrazino[2,3-b]pyrazin-5-one]	500 to 1000
Cc1cc(-c2cnc3c(n2)N(Cc2cccc(C(F)(F)F)c2)CC(=O)N3)cc2nc(N)[nH]c12 [Example 136, 6-(2-amino-7-methyl-1H-benzo[d]imidazol-5-yl)-4-(3-(trifluoromethyl)benzyl)-3,4-dihydropyrazino[2,3-b]pyrazin-2(1H)-one]	500 to 1000
CC(C)(O)c1ccc(-c2cnc3c(n2)N(Cc2cccc(C(F)(F)F)c2)CC(=O)N3)cn1 [Example 137, 6-(6-(2-hydroxypropan-2-yl)pyridin-3-yl)-4-(3-(trifluoromethyl)benzyl)-3,4-dihydropyrazino[2,3-b]pyrazin-2(1H)-one]	0.005 to 250
Cc1cc(-c2nnc[nH]2)ccc1-c1cnc2c(n1)N1CCOCC1C(=O)N2 (stereo not drawn) [Example 138, 9-(4-(4H-1,2,4-triazol-3-yl)-2-methylphenyl)-6,11,4a-trihydromorpholino[4,3-e]pyrazino[2,3-b]pyrazin-5-one]	0.005 to 250
CNc1nc2c(C)cc(-c3cnc4c(n3)N(CCC3CCOCC3)CC(=O)N4)cc2[nH]1 [Example 139, 6-(4-methyl-2-(methylamino)-1H-benzo[d]imidazol-6-yl)-4-(2-(tetrahydro-2H-pyran-4-yl)ethyl)-3,4-dihydropyrazino[2,3-b]pyrazin-2(1H)-one]	0.005 to 250

SMILES	IC50 [nM]
Cc1cc(-c2nnc[nH]2)ccc1-c1cnc2c(n1)N1CCCC1C(=O)N2 (stereo not drawn) [Example 140, 8-(4-(4H-1,2,4-triazol-3-yl)-2-methylphenyl)-5,10,3a-trihydropyrazino[2,3-b]pyrrolidino[1,2-e]pyrazin-4-one]	0.005 to 250
CCN1CC(=O)Nc2ncc(-c3ccc(-c4nnc[nH]4)cc3)nc21 [Example 141, 6-(4-(4H-1,2,4-triazol-3-yl)phenyl)-4-ethyl-3,4-dihydropyrazino[2,3-b]pyrazin-2(1H)-one]	250 to 500
O=C1CN(CC2CCOCC2)c2nc(-c3ccc(-c4nnc[nH]4)cc3)cnc2N1 [Example 142, 6-(4-(4H-1,2,4-triazol-3-yl)phenyl)-4-((tetrahydro-2H-pyran-4-yl)methyl)-3,4-dihydropyrazino[2,3-b]pyrazin-2(1H)-one]	0.005 to 250
COCCN1CC(=O)Nc2ncc(-c3ccc(-c4nnc[nH]4)cc3)nc21 [Example 144, 6-(4-(4H-1,2,4-triazol-3-yl)phenyl)-4-(2-methoxyethyl)-3,4-dihydropyrazino[2,3-b]pyrazin-2(1H)-one]	0.005 to 250
O=C1CN(Cc2cccc(C(F)(F)F)c2)c2nc(-c3ccc(-c4nnc[nH]4)cc3)cnc2N1 [Example 145, 6-(4-(4H-1,2,4-triazol-3-yl)phenyl)-4-(3-(trifluoromethyl)benzyl)-3,4-dihydropyrazino[2,3-b]pyrazin-2(1H)-one]	0.005 to 250
Cc1cc(-c2cnc3c(n2)N(CCC2CCOCC2)CC(=O)N3)cc2[nH]cnc12 [Example 147, 6-(4-methyl-1H-benzo[d]imidazol-6-yl)-4-(2-(tetrahydro-2H-pyran-4-yl)ethyl)-3,4-dihydropyrazino[2,3-b]pyrazin-2(1H)-one]	500 to 1000
CO[C@H]1CC[C@H](CN2C(=O)CNc3ncc(-c4cc(F)c(-c5nc[nH]n5)cc4C)nc32)CC1 [Example 150, 7-(5-fluoro-2-methyl-4-(1H-1,2,4-triazol-3-yl)phenyl)-1-((trans-4-methoxycyclohexyl)methyl)-3,4-dihydropyrazino[2,3-b]pyrazin-2(1H)-one]	0.005 to 250
CO[C@H]1CC[C@@H](N2C(=O)CNc3ncc(-c4ccc(-c5nc[nH]n5)nc4)nc32)CC1 [Example 151, 7-(6-(1H-1,2,4-triazol-3-yl)pyridin-3-yl)-1-(cis-4-methoxycyclohexyl)-3,4-dihydropyrazino[2,3-b]pyrazin-2(1H)-one]	0.005 to 250
O=C1CNc2ncc(-c3c[nH]c4ncccc34)nc2N1CCC1CCOCC1 [Example 152, 7-(1H-pyrrolo[2,3-b]pyridin-3-yl)-1-(2-(tetrahydro-2H-pyran-4-yl)ethyl)-3,4-dihydropyrazino[2,3-b]pyrazin-2(1H)-one]	0.005 to 250
CO[C@H]1CC[C@@H](CN2C(=O)CNc3ncc(-c4cc(F)c(-c5nc[nH]n5)cc4C)nc32)CC1 [Example 153, 7-(5-fluoro-2-methyl-4-(1H-1,2,4-triazol-3-yl)phenyl)-1-((cis-4-methoxycyclohexyl)methyl)-3,4-dihydropyrazino[2,3-b]pyrazin-2(1H)-one]	0.005 to 250
CCN1C(=O)CNc2ncc(-c3ccc4[nH]ccc4n3)nc21 [Example 154, 1-ethyl-7-(1H-pyrrolo[3,2-b]pyridin-5-yl)-3,4-dihydropyrazino[2,3-b]pyrazin-2(1H)-one]	1000 to 10000
CO[C@H]1CC[C@@H](CN2C(=O)CNc3ncc(-c4ccc(-c5nc[nH]n5)nc4)nc32)CC1 [Example 155, 7-(6-(1H-1,2,4-triazol-3-yl)pyridin-3-yl)-1-((cis-4-methoxycyclohexyl)methyl)-3,4-dihydropyrazino[2,3-b]pyrazin-2(1H)-one]	0.005 to 250
O=C1CNc2ncc(-c3cccc4[nH]cnc34)nc2N1CCC1CCOCC1 [Example 156, 7-(1H-benzo[d]imidazol-4-yl)-1-(2-(tetrahydro-2H-pyran-4-yl)ethyl)-3,4-dihydropyrazino[2,3-b]pyrazin-2(1H)-one]	500 to 1000
O=C1CNc2ncc(-c3ccnc4[nH]ccc34)nc2N1CCC1CCOCC1 [Example 157, 7-(1H-pyrrolo[2,3-b]pyridin-4-yl)-1-(2-(tetrahydro-2H-pyran-4-yl)ethyl)-3,4-dihydropyrazino[2,3-b]pyrazin-2(1H)-one]	0.005 to 250
CO[C@H]1CC[C@H](CN2C(=O)CNc3ncc(-c4ccc(-c5nc[nH]n5)nc4)nc32)CC1 [Example 158, 7-(6-(1H-1,2,4-triazol-3-yl)pyridin-3-yl)-1-((trans-4-methoxycyclohexyl)methyl)-3,4-dihydropyrazino[2,3-b]pyrazin-2(1H)-one]	0.005 to 250
O=C1CNc2ncc(-c3ccc(-c4nc[nH]n4)nc3)nc2N1C[C@H]1CC[C@H](O)CC1 [Example 159, 7-(6-(1H-1,2,4-triazol-3-yl)pyridin-3-yl)-1-((trans-4-hydroxycyclohexyl)methyl)-3,4-dihydropyrazino[2,3-b]pyrazin-2(1H)-one]	0.005 to 250
